Source: ChEMBL document CHEMBL5370666, “Covalent Peptide LSD1 Inhibitor Specifically Recognizes Cys360 in the Enzyme-Active Region” (J Med Chem, 2023)
Active and inactive are the calls of the source. The calls are words filed in the database; no cut-off is given here. *1 amine or outer side, *2 acyl side, *3 side chain or, on linkers, in order; H or OH if unused. Where a SMILES comes first, the peptide text is derived from it. Bridges are numbered along the chain shown (N, C = ends). [ ]: non-standard residue; d: D form. The star is where a group is joined. Met(S-mXyl) = C[S+](CC[C@H](N[*:1])C(=O)[*:2])Cc1cccc(C[*:3])c1; Biotin = O=C1N[C@H]2[C@H](CS[C@H]2CCCCC(=O)*)N1

How the values were obtained:
[1] = target: Lysine-specific histone demethylase 1A (Homo sapiens) (UniProt O60341); experiment: Covalent binding affinity to full-length human LSD1 transfected in HEK293T cell lysate at 40 uM incubated overnight by biotin-pull down assay; type: subcellular
T47D [2] = experiment: Induction of apoptosis in human T47D cells assessed as early apoptotic cells incubated for 24 hrs by Annexin V-FITC/PI staining based flow cytometry (reference value: 0.274 %); type: functional
A549 [3] = experiment: Induction of cell cycle arrest in human A549 cells assessed as cell accumulation at S phase at 50 uM incubated for 24 hrs by RNase/PI staining based flow cytometry (reference value: 39.60 %); type: functional
[4] = target: Apoptosis regulator Bcl-2 (Homo sapiens) (UniProt P10415); experiment: Binding affinity to BCL2 (unknown origin) at 50 uM incubated for 12 hrs by SDS-PAGE analysis
Sequence of Apoptosis regulator Bcl-2 (Homo sapiens) (P10415 whole entry): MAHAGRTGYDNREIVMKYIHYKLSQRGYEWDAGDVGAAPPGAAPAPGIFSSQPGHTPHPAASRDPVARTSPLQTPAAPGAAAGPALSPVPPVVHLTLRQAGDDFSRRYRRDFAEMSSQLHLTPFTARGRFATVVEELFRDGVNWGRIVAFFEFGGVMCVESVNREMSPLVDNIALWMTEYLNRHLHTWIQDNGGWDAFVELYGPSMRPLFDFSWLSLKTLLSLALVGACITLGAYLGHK

T47D [5] = experiment: Cytotoxicity against human T47D cells assessed as cell viability at 100 uM incubated for 24 hrs by MTT assay relative to control; conditions: read-out: Activity
A549 [6] = experiment: In vivo inhibition of LSD1 in human A549 cells xenografted in athymic nude BALB/c ASlac-nu mouse at 20 mg/kg, sc everyday for 28 days by IHC analysis; type: functional, organism-based; conditions: time 28.0 day
T47D [7] = experiment: Induction of apoptosis in human T47D cells assessed as viable cells incubated for 24 hrs by Annexin V-FITC/PI staining based flow cytometry (reference value: 98.6 %); type: functional
T47D [8] = experiment: Induction of apoptosis in human T47D cells assessed as necrotic cells incubated for 24 hrs by Annexin V-FITC/PI staining based flow cytometry (reference value: 0.243 %); type: functional
A549 [9] = experiment: Cytotoxicity against human A549 cells assessed as cell viability at 100 uM incubated for 24 hrs by MTT assay relative to control; conditions: A549, 24 h, read-out: Activity
[10] = target: T1, Phospholipid hydroperoxide glutathione peroxidase GPX4 (Homo sapiens) (UniProt P36969); experiment: Binding affinity to GPX4 (unknown origin) at 50 uM incubated for 12 hrs by SDS-PAGE analysis
T1 sequence (whole entry): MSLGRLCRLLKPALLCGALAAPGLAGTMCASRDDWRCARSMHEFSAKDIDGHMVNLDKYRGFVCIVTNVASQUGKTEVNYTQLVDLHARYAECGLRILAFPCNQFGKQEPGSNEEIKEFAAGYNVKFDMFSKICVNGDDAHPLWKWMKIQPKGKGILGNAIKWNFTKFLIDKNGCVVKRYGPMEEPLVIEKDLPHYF

T47D [11] = experiment: Induction of apoptosis in human T47D cells assessed as late apoptotic cells incubated for 24 hrs by Annexin V-FITC/PI staining based flow cytometry (reference value: 0.898 %); type: functional
[12] = Toxicity in athymic nude BALB/c ASlac-nu mouse xenografted with human A549 cells assessed as body weight loss at 20 mg/kg, sc everyday for 28 days; type: organism-based; conditions: in vivo, 672 h, time 28 day
A549 [13] = conditions: Homo sapiens, dose 20.0 mg/kg, route sc, time 28.0 day
A549 [14] = experiment: Induction of cell cycle arrest in human A549 cells assessed as cell accumulation at G2 phase at 50 uM incubated for 24 hrs by RNase/PI staining based flow cytometry (reference value: 9.81 %); type: functional
A549 [15] = experiment: Induction of cell cycle arrest in human A549 cells assessed as cell accumulation at G1 phase at 50 uM incubated for 24 hrs by RNase/PI staining based flow cytometry (reference value: 49.19 %); type: functional
[16] = target: T2, Amine oxidase [flavin-containing] A (Homo sapiens, UniProt P21397); experiment: Inhibition of MAO-A (unknown origin) incubated for 10 mins by fluorescence based assay
T2 sequence (P21397 whole entry): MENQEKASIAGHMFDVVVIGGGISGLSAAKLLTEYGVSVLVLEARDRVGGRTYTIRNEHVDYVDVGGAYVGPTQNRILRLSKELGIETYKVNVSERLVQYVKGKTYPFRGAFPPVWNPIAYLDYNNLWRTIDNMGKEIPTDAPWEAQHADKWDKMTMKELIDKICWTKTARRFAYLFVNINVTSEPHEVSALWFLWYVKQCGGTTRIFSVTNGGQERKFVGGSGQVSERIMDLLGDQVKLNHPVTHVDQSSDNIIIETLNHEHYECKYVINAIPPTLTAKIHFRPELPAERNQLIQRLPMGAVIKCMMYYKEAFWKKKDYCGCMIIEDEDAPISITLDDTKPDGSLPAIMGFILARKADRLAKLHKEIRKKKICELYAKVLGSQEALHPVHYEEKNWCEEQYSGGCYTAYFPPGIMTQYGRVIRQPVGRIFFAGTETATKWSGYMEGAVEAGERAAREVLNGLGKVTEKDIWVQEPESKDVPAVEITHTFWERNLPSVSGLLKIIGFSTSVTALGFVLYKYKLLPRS

Row | Compound | Activity [1] | Activity (T47D [2]) [%] | Activity (A549 [3]) [%] | Activity [4] | viability at 100 µM (T47D [5]) [%] | inhibition (A549 [6]) | Activity (T47D [7]) [%] | Activity (T47D [8]) [%] | viability at 100 µM (A549 [9]) [%] | Activity [10] | Activity (T47D [11]) [%] | Activity [12] | inhibition (A549 [13]) | Activity (A549 [14]) [%] | Activity (A549 [15]) [%] | inhibition (INH) [16]
1 | CC(=O)N1CCC[C@H]1C(=O)N[C@@H](CCCNC(=N)N)C(=O)N[C@H]1CSCc2cccc(c2)C[S+](C)CC[C@@H](C(=O)N[C@@H](CCCCNC(=O)CCCC[C@@H]2SC[C@@H]3NC(=O)N[C@@H]32)C(=O)N2CCC[C@H]2C(=O)N[C@@H](Cc2c[nH]c3ccccc23)C(N)=O)NC(=O)[C@H](C(C)C)NC(=O)[C@H](CC(C)C)NC(=O)[C@H](Cc2ccccc2)NC1=O (stereo not given in full) (Ac-PRCFLV[Met(S-mXyl)]K(Biotin)PW-NH2; thioether 3-7) | Active |  |  |  |  |  |  |  |  |  |  |  |  |  |  | 
2 | CC(=O)N1CCC[C@H]1C(=O)N[C@@H](CCCNC(=N)N)C(=O)N[C@H]1CSCc2cccc(c2)C[S+](C)CC[C@@H](C(=O)N[C@@H](CCCCN)C(=O)N2CCC[C@H]2C(=O)N[C@@H](CCCNC(=N)N)C(=O)N[C@@H](CCCNC(=N)N)C(=O)N[C@@H](CCCNC(=N)N)C(=O)N[C@@H](CCCNC(=N)N)C(=O)N[C@@H](Cc2c[nH]c3ccccc23)C(N)=O)NC(=O)[C@H](C(C)C)NC(=O)[C@H](CC(C)C)NC(=O)[C@H](Cc2ccccc2)NC1=O (stereo not given in full) (Ac-PRCFLV[Met(S-mXyl)]KPRRRRW-NH2; thioether 3-7) |  | 0 | 27.23 | inactive | ~7.4 | Active | 2.14 | 51.2 | ~19.9 | inactive | 46.7 | Non-Toxic | Active | 12 | 60.61 | Not Active
3 | C#CCN(C)CCCOc1ccc(Cl)cc1Cl [CLORGILINE] |  |  |  |  |  |  |  |  |  |  |  |  |  |  |  | Active
4 | O=C(O)c1ccc(CN2CCC(CN[C@@H]3C[C@H]3c3ccccc3)CC2)cc1 [GSK2879552] |  | 1.62 | 36.7 |  |  | Active | 95.9 | 0.743 |  |  | 1.74 | Non-Toxic |  | 9.92 | 53.15 | 
5 | Ac-PRSFLVRKPRRRRW-NH2 |  | 1.49 | 34.2 |  |  | Active | 96.3 | 0.088 |  |  | 2.19 | Non-Toxic |  | 7.96 | 57.34 | 
